Where two headings read alike, the source gives them in different places.

The test system of experiment [1] is A/California/04/2009 (H1N1) Ca/04. Briefly: microbe, parasite or virus in culture. In kind it is cell-based. The settings on record: Influenza A virus.
The subject of experiment [2] is Ca/04 OsR (A/California/04/2009 (H1N1)-H275Y). Also on record: species or system mice. The settings on record: mouse, in vivo.
Experiment [3] has as its system A/California/07/2009 (H1N1). Briefly: microbe, parasite or virus in culture. In kind it is cell-based, Influenza A virus.
Where [4] appears, read: H1N1, read-out: EC50 (μM), A/California/04/2009 (H1N1) Ca/04.

Consider `CCC(CC)O[C@@H]1C=C(C(=O)O)C[C@H](N)[C@H]1NC(C)=O` [Oseltamivir carboxylate], for which, in experiment [1] (H1N1, read-out: EC50 (nM), A/California/04/2009 (H1N1) Ca/04), the EC50 is 1.4 ± 0.32 nM.

In experiment [2], `CCOC(=O)C1=C[C@@H](OC(CC)CC)[C@H](NC(C)=O)[C@@H](N)C1` [Oseltamivir, Oseltamivir phosphate, reference compound] gave a Body weight loss of around 20% and a Survival of 16%.

`[2H]C(NC12CC3CC(CC(O)(C3)C1)C2)c1ccc(I)s1` (stereo not shown) [UAWJ280, 3-{[(5-iodothiophen-2-yl)(D)methyl]amino}adamantan-1-ol]: the EC50 in experiment [1] (setting [4]) was 270 ± 40 nM. The “EC50 increase at passage 6” value in experiment [3] stood at 7 fold. Also, the EC50 in experiment [3] (Influenza A virus, H1N1, read-out: EC50 (μM), serial passage) worked out at 0.27 µM. In experiment [2], the Body weight loss is around 15% and the Survival is 65%. The Clinical signs result in experiment [2] (ip) is reported as “mild clinical signs”.

`NC12CC3CC(CC(C3)C1)C2` [Amantadine]: the EC50 in experiment [1] (setting [4]) was above 20000 nM.

Source of the values: article PMC8451667 (Emerging Microbes & Infections, 2021).
